Results as given in ChEMBL document CHEMBL3352410 (J Med Chem, 2014).

Assays:
[1] = biological target: T1, Delta-type opioid receptor (Homo sapiens, UniProt P41143); experiment: Antagonist activity at human delta opioid receptor expressed in CHO cells assessed as inhibition of DPDPE-stimulated [35S]GTPgammaS binding; assay type: functional, cell-based
Mu-type opioid receptor [2] = biological target: T2, Mu-type opioid receptor (Homo sapiens, UniProt P35372); experiment: Antagonist activity at human mu opioid receptor expressed in CHO cells assessed as inhibition of DAMGO-stimulated [35S]GTPgammaS binding; assay type: functional, cell-based
T2 sequence (P35372 whole entry): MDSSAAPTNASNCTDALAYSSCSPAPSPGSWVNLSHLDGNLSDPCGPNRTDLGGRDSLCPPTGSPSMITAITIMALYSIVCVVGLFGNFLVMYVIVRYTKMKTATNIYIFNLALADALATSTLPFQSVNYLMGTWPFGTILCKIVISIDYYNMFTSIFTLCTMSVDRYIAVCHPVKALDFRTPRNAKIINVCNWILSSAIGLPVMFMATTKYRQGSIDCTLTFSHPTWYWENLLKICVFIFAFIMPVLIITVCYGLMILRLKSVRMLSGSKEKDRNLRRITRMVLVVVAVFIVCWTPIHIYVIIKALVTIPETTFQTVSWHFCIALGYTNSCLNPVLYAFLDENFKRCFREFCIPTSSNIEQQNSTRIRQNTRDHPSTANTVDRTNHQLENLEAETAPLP

Mu-type opioid receptor [3] = biological target: T2, Mu-type opioid receptor; experiment: Binding affinity to human mu opioid receptor expressed in CHO cells; assay type: cell-based
[4] = biological target: T3, Kappa-type opioid receptor (Homo sapiens, UniProt P41145); experiment: Binding affinity to human kappa opioid receptor expressed in CHO cells; assay type: cell-based
T3 sequence (P41145 whole entry): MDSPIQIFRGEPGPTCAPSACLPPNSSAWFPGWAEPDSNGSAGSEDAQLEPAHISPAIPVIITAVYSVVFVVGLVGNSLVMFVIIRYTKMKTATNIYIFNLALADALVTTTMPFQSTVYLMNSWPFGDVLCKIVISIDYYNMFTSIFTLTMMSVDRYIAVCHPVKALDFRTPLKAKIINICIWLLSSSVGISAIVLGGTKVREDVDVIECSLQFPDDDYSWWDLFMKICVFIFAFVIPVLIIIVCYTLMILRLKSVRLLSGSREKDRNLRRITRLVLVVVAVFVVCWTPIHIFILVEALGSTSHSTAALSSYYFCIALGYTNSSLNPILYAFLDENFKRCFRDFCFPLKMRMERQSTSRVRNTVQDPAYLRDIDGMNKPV

[5] = biological target: T1, Delta-type opioid receptor; experiment: Binding affinity to human delta opioid receptor expressed in CHO cells; assay type: cell-based
[6] = biological target: T3, Kappa-type opioid receptor; experiment: Antagonist activity at human kappa opioid receptor expressed in CHO cells assessed as inhibition of U69,593-stimulated [35S]GTPgammaS binding; assay type: functional, cell-based

T1 sequence (P41143 whole entry): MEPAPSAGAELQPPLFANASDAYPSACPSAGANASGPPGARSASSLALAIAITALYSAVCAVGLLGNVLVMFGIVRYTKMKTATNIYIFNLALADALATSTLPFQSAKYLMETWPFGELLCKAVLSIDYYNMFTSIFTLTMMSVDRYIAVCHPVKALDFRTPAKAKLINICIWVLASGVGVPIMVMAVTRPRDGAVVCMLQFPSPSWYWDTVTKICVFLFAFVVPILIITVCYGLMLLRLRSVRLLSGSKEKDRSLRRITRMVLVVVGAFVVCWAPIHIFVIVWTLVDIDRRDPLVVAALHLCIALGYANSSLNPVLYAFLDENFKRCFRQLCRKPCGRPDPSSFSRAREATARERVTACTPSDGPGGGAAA

SMILES: C[C@H]1CN(CC[C@H](O)C2CCCCC2)CC[C@@]1(C)c1ccccc1
- Kb [1]: 47.1 nM
- Kb (Mu-type opioid receptor [2]): 1.6 nM
- Ki (Mu-type opioid receptor [3]): 7.7 nM
- Ki [4]: 749 nM
- Ki [5]: 169 nM
- Kb [6]: 40.6 nM
